The source of these data is patent US8354403B2, “Pyrrolidine derived beta 3 adrenergic receptor agonists” (Merck Sharp & Dohme Corp., priority 2009, dated 2013).

Some results are limits rather than exact numbers.

T1 sequence (P13945 whole entry): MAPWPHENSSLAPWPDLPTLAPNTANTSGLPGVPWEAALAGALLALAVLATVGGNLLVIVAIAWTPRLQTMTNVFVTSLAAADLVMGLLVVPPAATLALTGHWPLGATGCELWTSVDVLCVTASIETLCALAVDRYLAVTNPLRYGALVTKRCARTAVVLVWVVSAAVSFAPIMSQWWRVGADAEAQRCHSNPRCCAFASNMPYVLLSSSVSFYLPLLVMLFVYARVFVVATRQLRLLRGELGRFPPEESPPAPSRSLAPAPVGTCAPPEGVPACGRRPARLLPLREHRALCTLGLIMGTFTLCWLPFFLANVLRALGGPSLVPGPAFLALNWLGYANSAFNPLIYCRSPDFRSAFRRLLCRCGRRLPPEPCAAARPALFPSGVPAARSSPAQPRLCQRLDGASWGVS

One test addresses T1, human β3 adrenergic receptor (Homo sapiens, UniProt P13945).
T1 construct: expressed in transfected cells; host or cells: Chinese hamster ovary (CHO) cells, stably transfected
Briefly: Beta-3 agonist in vitro functional assay: cAMP production (LANCE TR-FRET) in CHO cells stably transfected with the cloned β3 receptor. It counts as cell-based. The conditions noted are these: Table 4; cAMP, CHO cells; read-out: Human β3 agonist functional activity. As for the experimental part: Chinese hamster ovary (CHO) cells, stably transfected with the cloned β-adrenergic receptor (β1, β2 or β3) are harvested after 3 days of subculturing. Harvesting of cells is done with Enzyme-free Dissociation Media (Specialty Media). Cells are then counted and resuspended in assay buffer (Hank's Balanced salt solution supplemented with 5 mM HEPES, […]) containing a phosphodiesterase inhibitor (IBMX, 0.6 mM). The reaction is initiated by mixing 6,000 cells in 6 μL with 6 μL Alexa Fluor labeled cAMP antibody (LANCE™ kit) which is then added to an assay well containing 12 μL of compound (diluted in assay buffer to 2× final concentration). The reaction proceeds for 30 minutes at RT and is terminated by the addition of 24 ul detection buffer (LANCE™ kit). The assay plate is then incubated for 1 h at RT and time-resolved fluorescence measured on a Perkin Elmer Envision reader or equivalent. The unknown cAMP level is determined by comparing fluorescence levels to a cAMP standard curve.
The non-selective, full agonist β-adrenergic ligand isoproterenol is used at all three receptors to determine maximal stimulation. […] Data are analyzed using Microsoft Excel and Graphpad Prism or an internally developed data analysis software package.
`O=C(c1ccc(C[C@@H]2CC[C@H]([C@H](O)c3ccccc3)N2)cc1)N1Cc2c[nH]nc2C1` [Example 27]: the EC50 lay in the range of 0.01 to 0.0999 µM.
Same read-out and setting: with `CCOC(=O)C1(F)CCCN(C(=O)c2ccc(C[C@@H]3CC[C@H]([C@H](O)c4ccccc4)N3)cc2)C1` (stereo partly drawn) [Example 37] the figure was 0.1 to 0.999 µM.
The same measure, in the same setting: with `COc1ccc2c(c1)C(=O)CC1(CCCN(C(=O)c3ccc(C[C@@H]4CC[C@H]([C@H](O)c5cccnc5)N4)cc3)C1)O2` (stereo partly drawn) [Example 42] the figure was 0.1 to 0.999 µM; with `O=C(c1ccc(C[C@@H]2CC[C@H]([C@H](O)c3ccccc3)N2)cc1)N1CCC2c3cccnc3OC2C1` (stereo partly drawn) [Example 58], 0.01 to 0.0999 µM.
Consider `CCOC(=O)C1CCCCN1C(=O)c1ccc(C[C@@H]2CC[C@H]([C@H](O)c3ccccc3)N2)cc1` (stereo partly drawn) [Example 48], for which the EC50 lay in the range of 0.1 to 0.999 µM.
Consider `CO[C@H]1CCN(C(=O)c2ccc(C[C@@H]3CC[C@H]([C@H](O)c4ccccc4)N3)cc2)C1` [Example 8], for which the EC50 was 0.1 to 0.999 µM.
Same read-out and setting: with `O=C(c1ccc(C[C@@H]2CC[C@H]([C@H](O)c3ccccc3)N2)cc1)N1Cc2cocc2C1` [Example 26] the figure was 0.01 to 0.0999 µM.

The same test, now with this note: Table 5; cAMP, CHO cells; read-out: Human β3 agonist functional activity.
Regarding `CC(C1CCN(C(=O)c2ccc(C[C@@H]3CC[C@H]([C@H](O)c4ccccc4)N3)cc2)CC1)n1ncccc1=O` (stereo partly drawn) [Example 165], the EC50 was 0.01 to 0.0999 µM.
Still for that read-out and setting: with `COc1cc(OC)nc(C2CCN(C(=O)c3ccc(C[C@@H]4CC[C@H]([C@H](O)c5ccccc5)N4)cc3)CC2)n1` [Example 115] the figure was 0.1 to 0.999 µM.
Regarding `Cn1nnnc1C1CCN(C(=O)c2ccc(C[C@@H]3CC[C@H]([C@H](O)c4ccccc4)N3)cc2)CC1` [Example 108], the EC50 is 0.001 to 0.0099 µM.
Turning to `O=C(c1ccc(C[C@@H]2CC[C@H]([C@H](O)c3ccccc3)N2)cc1)N1CCC(S(=O)(=O)c2cc(F)ccc2F)CC1` [Example 140], the EC50 was 0.01 to 0.0999 µM.
In the case of `Cc1nnn(C2CCN(C(=O)c3ccc(C[C@@H]4CC[C@H]([C@H](O)c5ccccc5)N4)cc3)CC2)n1` [Example 104], the EC50 was 0.1 to 0.999 µM.
Still for that read-out and setting: with `O=C(c1ccc(C[C@@H]2CC[C@H]([C@H](O)c3ccccc3)N2)cc1)N1CCC(S(=O)(=O)c2cccc(F)c2)CC1` [Example 130] the figure was 0.001 to 0.0099 µM; with `COC(=O)c1csc(C2CCN(C(=O)c3ccc(C[C@@H]4CC[C@H]([C@H](O)c5ccccc5)N4)cc3)CC2)n1` [Example 88], 0.01 to 0.0999 µM.
Still for that read-out and setting: the result for `CS(=O)(=O)C1CCN(C(=O)c2ccc(C[C@@H]3CC[C@H]([C@H](O)c4cccnc4)N3)cc2)CC1` [Example 123] reads 0.1 to 0.999 µM.
In the case of `O=C(O)C1CCN(C(=O)c2ccc(C[C@@H]3CC[C@H]([C@H](O)c4ccccc4)N3)cc2)CC1` [Example 117], the EC50 was 0.1 to 0.999 µM.

Still in this test, the particulars now being: Table 8; Beta-3 agonist in vitro functional assay; read-out: Human β3 agonist functional activity.
`COc1ccc2c(c1)C(=O)CC1(CCN(C(=O)c3ccc(C[C@@H]4CC[C@H]([C@H](O)c5cccnc5)N4)cc3)CC1)S2` [Example 329]: the EC50 was 0.01 to 0.0999 µM.
On the same count and under the same terms, with `O=C1CC2(CCN(C(=O)c3ccc(C[C@@H]4CC[C@H]([C@H](O)c5ccccc5)N4)cc3)CC2)S(=O)(=O)c2ccccc21` [Example 338] the figure was 0.001 to 0.0099 µM; with `O=C(c1ccc(C[C@@H]2CC[C@H]([C@H](O)c3ccccc3)N2)cc1)N1CCC2(CC1)c1ccccc1CS2(=O)=O` [Example 302], 0.01 to 0.0999 µM.
For `O=C1Nc2ncccc2C2(CCN(C(=O)c3ccc(C[C@@H]4CC[C@H]([C@H](O)c5ccccc5)N4)cc3)CC2)O1` [Example 330], the EC50 lay within 0.01 to 0.0999 µM.
On the same count and under the same terms, the result for `CC1COC(=O)C12CCN(C(=O)c1ccc(C[C@@H]3CC[C@H]([C@H](O)c4ccccc4)N3)cc1)CC2` (stereo partly drawn) [Example 296] reads 0.001 to 0.0099 µM.
Still for that read-out and setting: with `O=C(c1ccc(C[C@@H]2CC[C@H]([C@H](O)c3ccccc3)N2)cc1)N1CCC2(CCCNC2=O)CC1` [Example 256] the figure was 0.1 to 0.999 µM.
`CC1(C)CC2(CCN(C(=O)c3ccc(C[C@@H]4CC[C@H]([C@H](O)c5ccccc5)N4)cc3)CC2)CO1` [Example 312]: the EC50 lay in the range of 0.1 to 0.999 µM.
For `CN1CC(c2ccc(F)cc2)C2(CCN(C(=O)c3ccc(C[C@@H]4CC[C@H]([C@H](O)c5ccccc5)N4)cc3)CC2)C1=O` (stereo partly drawn) [Example 262], the EC50 is under 0.001 µM.
Same read-out and setting: with `COc1ccc2c(c1)C(=O)CC1(CCN(C(=O)c3ccc(C[C@@H]4CC[C@H]([C@H](O)c5ccccc5)N4)cc3)CC1)S2(=O)=O` [Example 339] the figure was 0.001 to 0.0099 µM; with `O=C(c1ccc(C[C@@H]2CC[C@H]([C@H](O)c3ccccc3)N2)cc1)N1CCC2(CC1)C(=O)NCC2c1ccccn1` (stereo partly drawn) [Example 266], 0.001 to 0.0099 µM.

Still in this test, the particulars now being: Table 9; Beta-3 agonist in vitro functional assay; read-out: Human β3 agonist functional activity.
`CC(C)n1nnc(CN2CCN(C(=O)c3ccc(C[C@@H]4CC[C@H]([C@H](O)c5ccccc5)N4)cc3)CC2)n1` [Example 402]: the EC50 is 0.01 to 0.0999 µM.
Still for that read-out and setting: with `O=C(c1ccc(C[C@@H]2CC[C@H]([C@H](O)c3ccccc3)N2)cc1)N1CCN(c2nsc3ccccc23)CC1` [Example 386] the figure was 0.01 to 0.0999 µM.
The same measure, in the same setting: with `Cn1nnc(CN2CCN(C(=O)c3ccc(C[C@@H]4CC[C@H]([C@H](O)c5ccccc5)N4)cc3)CC2)n1` [Example 401] the figure was 0.01 to 0.0999 µM.
Same read-out and setting: the result for `O=C(c1ccc(C[C@@H]2CC[C@H]([C@H](O)c3ccccc3)N2)cc1)N1CCN(c2ncc3ccccc3n2)CC1` [Example 375] reads 0.1 to 0.999 µM.
For `O=C(c1ccc(C[C@@H]2CC[C@H]([C@H](O)c3ccccc3)N2)cc1)N1CCN(c2cc3ccccc3cn2)CC1` [Example 374], the EC50 is 0.1 to 0.999 µM.
`O=C(c1ccc(C[C@@H]2CC[C@H]([C@H](O)c3ccccc3)N2)cc1)N1CCN(C(=O)c2ccccn2)CC1` [Example 348]: the EC50 lay in the range of 0.01 to 0.0999 µM.
For `CC(C)Oc1cccnc1N1CCN(C(=O)c2ccc(C[C@@H]3CC[C@H]([C@H](O)c4ccccc4)N3)cc2)CC1` [Example 363], the EC50 fell in the range of 0.01 to 0.0999 µM.
Consider `O=C(c1ccc(C[C@@H]2CC[C@H]([C@H](O)c3ccccc3)N2)cc1)N1CCN(C(=O)c2ccco2)CC1` [Example 349], for which the EC50 was 0.1 to 0.999 µM.
On to `O=C(c1ccc(C[C@@H]2CC[C@H]([C@H](O)c3ccccc3)N2)cc1)N1CCN(Cc2nnn[nH]2)CC1` [Example 398], for which the EC50 fell in the range of 0.01 to 0.0999 µM.
Consider `O=C(O)c1csc(N2CCN(C(=O)c3ccc(C[C@@H]4CC[C@H]([C@H](O)c5ccccc5)N4)cc3)CC2)n1` [Example 382], for which the EC50 fell in the range of 0.999 to 3 µM.
Still for that read-out and setting: the result for `COC(=O)c1csc(N2CCN(C(=O)c3ccc(C[C@@H]4CC[C@H]([C@H](O)c5ccccc5)N4)cc3)CC2)n1` [Example 381] reads 0.1 to 0.999 µM; that for `O=C(O)c1cccnc1N1CCN(C(=O)c2ccc(C[C@@H]3CC[C@H]([C@H](O)c4ccccc4)N3)cc2)CC1` [Example 365], 0.1 to 0.999 µM.

The test is the same for the next values; noted with them: Table 10; Beta-3 agonist in vitro functional assay; read-out: Human β3 agonist functional activity.
Regarding `CC(C(=O)NC1CCCC1)N1CCN(C(=O)c2ccc(C[C@@H]3CC[C@H]([C@H](O)c4ccccc4)N3)cc2)CC1` (stereo partly drawn) [Example 456], the EC50 was in the range of 0.01 to 0.0999 µM.
On the same count and under the same terms, the result for `CC(C(=O)N1CCc2ncccc2C1)N1CCN(C(=O)c2ccc(C[C@@H]3CC[C@H]([C@H](O)c4ccccc4)N3)cc2)CC1` (stereo partly drawn) [Example 507] reads 0.01 to 0.0999 µM; that for `CC(C(=O)NCc1cn2ccsc2n1)N1CCN(C(=O)c2ccc(C[C@@H]3CC[C@H]([C@H](O)c4ccccc4)N3)cc2)CC1` (stereo partly drawn) [Example 467], 0.01 to 0.0999 µM; that for `CC(C)[C@@H](C)NC(=O)C(C)N1CCN(C(=O)c2ccc(C[C@@H]3CC[C@H]([C@H](O)c4ccccc4)N3)cc2)CC1` (stereo partly drawn) [Example 441], 0.01 to 0.0999 µM.

The same test, now with this note: Table 11; cAMP, CHO cells; read-out: Human β3 agonist functional activity.
As to `O=C(c1ccc(C[C@@H]2CC[C@H]([C@H](O)c3ccccc3)N2)cc1)N1CC2CCC1CN2Cc1ccccn1` (stereo partly drawn) [Example 536], the EC50 was 0.1 to 0.999 µM.
The same measure, in the same setting: with `C[C@@H]1CN(C(=O)c2ccc(C[C@@H]3CC[C@H]([C@H](O)c4ccccc4)N3)cc2)CCN1Cc1ccccn1` [Example 527] the figure was 0.01 to 0.0999 µM; with `C[C@@H](c1ccccn1)N1CC2CC1CN2C(=O)c1ccc(C[C@@H]2CC[C@H]([C@H](O)c3ccccc3)N2)cc1` (stereo partly drawn) [Example 538], 0.1 to 0.999 µM.

The test is the same for the next values; noted with them: Table 12; human β3 functional activity given as ranges; read-out: Human β3 agonist functional activity.
`CC(C)C1CC2(CCN(C(=O)c3ccc(CC4CCC(C(O)c5ccccc5)N4)cc3)CC2)C(=O)O1` (single isomer, unassigned) [Example 568]: the EC50 was in the range of 0.01 to 0.0999 µM.
Same read-out and setting: the result for `CC(c1ncco1)N1CCN(C(=O)c2ccc(CC3CCC(C(O)c4ccccc4)N3)cc2)CC1` (single isomer, unassigned) [Example 583] reads 0.01 to 0.0999 µM.
With `CC(c1cccnn1)N1CCN(C(=O)c2ccc(CC3CCC(C(O)c4ccccc4)N3)cc2)CC1` (single isomer, unassigned) [Example 592], the EC50 was 0.1 to 0.999 µM.
Same read-out and setting: with `O=C(c1ccc(CC2CCC(C(O)c3ccccc3)N2)cc1)N1CCC2(CC1)CC(C(F)(F)F)OC2=O` (single isomer, unassigned) [Example 565] the figure was 0.001 to 0.0099 µM.

The same test, now with this note: given as a range; cAMP, CHO cells; read-out: human β3 functional activity.
Turning to `O=C(c1ccc(C[C@@H]2CC[C@H]([C@H](O)c3ccccc3)N2)cc1)N1CCC2(CCOC2=O)CC1` [Example 239, 8-[4-({(2S,5R)-5-[(R)-hydroxy(phenyl)methyl]pyrrolidin-2-yl}methyl)benzoyl]-2-oxa-8-azaspiro[4.5]decan-1-one], the EC50 fell in the range of 0.001 to 0.0099 µM.

The test is the same for the next values; noted with them: human β3 functional activity.
Turning to `C[C@@H](c1ccccn1)N1C2CCC1C1CCC2N1C(=O)c1ccc(C[C@@H]2CC[C@H]([C@H](O)c3ccccc3)N2)cc1` [Example 526], the EC50 fell in the range of 0.01 to 0.0999 µM.
